Data as given in PubChem BioAssay AID2060625 (Molecular Pharmacology Branch, DTP, NCI, 2025).

System: 186277-243-T-J2-PDC spheroids with HUVEC/MSC, viability
Test: Anticancer human tumor 186277-243-T-J2-PDC patient-derived colon adenocarcinoma cell line growth inhibition [CLK]
Details: for IC50: curve of first compound; for viability, T/C: stronger effect = lower value
Outline: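 Multi-cell-type spheroids combined patient-derived tumor cells with HUVEC endothelial cells and human mesenchymal stem cells. Paired agents were dosed in half-log steps down from about clinical Cmax, or from 10 microM where Cmax was unknown.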
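Also: compound exposure lasted seven days before readout.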
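For viability, T/C in this document: 100% = DMSO vehicle control wells.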

C=CC(=O)Nc1cc(Nc2nccc(-c3cn(C)c4ccccc34)n2)c(OC)cc1N(C)CCN(C)C + CNC(=O)c1ccc(Nc2nc(OC3CCCC3)c3c(-c4ccc5nc(C)oc5c4)c[nH]c3n2)c(OC)c1
IC50 (second compound 0.0316 µM): > 300 nM | IC50 (second compound 0.1 µM): 203 nM | IC50 (second compound 0.316 µM): < 0.949 nM | IC50 (second compound 1 µM): < 0.949 nM | IC50 (second compound 3.16 µM): < 0.949 nM | IC50 (second compound 10 µM): < 0.949 nM | viability, T/C (second compound 0.0316 µM, first compound 0.000949 µM): 118% | viability, T/C (second compound 0.0316 µM, first compound 0.003 µM): 109% | viability, T/C (second compound 0.0316 µM, first compound 0.00949 µM): 101% | viability, T/C (second compound 0.0316 µM, first compound 0.03 µM): 93.7% | viability, T/C (second compound 0.0316 µM, first compound 0.0949 µM): 97.9% | viability, T/C (second compound 0.0316 µM, first compound 0.3 µM): 101% | viability, T/C (second compound 0.1 µM, first compound 0.000949 µM): 84.3% | viability, T/C (second compound 0.1 µM, first compound 0.003 µM): 76.1% | viability, T/C (second compound 0.1 µM, first compound 0.00949 µM): 73.1% | viability, T/C (second compound 0.1 µM, first compound 0.03 µM): 68% | viability, T/C (second compound 0.1 µM, first compound 0.0949 µM): 57.4% | viability, T/C (second compound 0.1 µM, first compound 0.3 µM): 46% | viability, T/C (second compound 0.316 µM, first compound 0.000949 µM): 48.7% | viability, T/C (second compound 0.316 µM, first compound 0.003 µM): 46.7% | viability, T/C (second compound 0.316 µM, first compound 0.00949 µM): 45% | viability, T/C (second compound 0.316 µM, first compound 0.03 µM): 43.4% | viability, T/C (second compound 0.316 µM, first compound 0.0949 µM): 39.4% | viability, T/C (second compound 0.316 µM, first compound 0.3 µM): 24.1% | viability, T/C (second compound 1 µM, first compound 0.000949 µM): 37.4% | viability, T/C (second compound 1 µM, first compound 0.003 µM): 36.5% | viability, T/C (second compound 1 µM, first compound 0.00949 µM): 32.7% | viability, T/C (second compound 1 µM, first compound 0.03 µM): 30.3% | viability, T/C (second compound 1 µM, first compound 0.0949 µM): 27% | viability, T/C (second compound 1 µM, first compound 0.3 µM): 18.1% | viability, T/C (second compound 3.16 µM, first compound 0.000949 µM): 36.3% | viability, T/C (second compound 3.16 µM, first compound 0.003 µM): 33.5% | viability, T/C (second compound 3.16 µM, first compound 0.00949 µM): 32.3% | viability, T/C (second compound 3.16 µM, first compound 0.03 µM): 28.6% | viability, T/C (second compound 3.16 µM, first compound 0.0949 µM): 24.8% | viability, T/C (second compound 3.16 µM, first compound 0.3 µM): 17.4% | viability, T/C (second compound 10 µM, first compound 0.000949 µM): 37.2% | viability, T/C (second compound 10 µM, first compound 0.003 µM): 35.6% | viability, T/C (second compound 10 µM, first compound 0.00949 µM): 33% | viability, T/C (second compound 10 µM, first compound 0.03 µM): 32.4% | viability, T/C (second compound 10 µM, first compound 0.0949 µM): 29.3% | viability, T/C (second compound 10 µM, first compound 0.3 µM): 21.1%
